As usually defined, the solubility is the concentration that dissolves in the medium under given conditions. A higher solubility goes with a readily soluble substance.

≈ marks a conversion by molar mass, not a printed value.

From the OPERA property sets (Mansouri et al. 2018) come the findings set out here.

The conditions of one series: 20 °C.
Regarding `CC(=O)C1CC(CC(=O)O)C1(C)C` (stereo not given), the solubility is 266 mM (≈ 49000 µg/mL).

Compound `Nc1ccc(Cl)cc1[N+](=O)[O-]` yielded a solubility of 2.9 mM (≈ 500 µg/mL).

For the compound `ClCCOCOCCCl`, the solubility was determined as 45.1 mM (≈ 7800 µg/mL).

Consider `Ic1ccc2c(c1)Sc1ccccc1N2`, for which the solubility is 0.000118 mM (≈ 0.0384 µg/mL).

With `O=C(O)CCCP(=O)(O)O`, the solubility was 3170 mM (≈ 533000 µg/mL).

As to `COCc1ccccc1`, the solubility stood at 24.6 mM (≈ 3000 µg/mL).

Turning to `C/C=C\CC1(C/C=C/C)C(=O)NC(=O)NC1=O`, the solubility is 6.35 mM (≈ 1500 µg/mL).

`Cn1cnc2c(=O)n(C)c(=O)n(C)c2c1=O`: the solubility is 10.4 mM (≈ 2300 µg/mL).

The series is the same for the next values; noted with them: 21 °C.
Compound `COc1ccc(NC(N)=O)cc1` showed a solubility of 25.6 mM (≈ 4250 µg/mL).

As for `O=C(O)CNC(=O)c1ccco1`, the solubility is 187 mM (≈ 31700 µg/mL).

Still in this series, the particulars now being: 22 °C.
The compound `C[C@](N)(C(=O)O)c1ccccc1` displayed a solubility of 291 mM (≈ 48000 µg/mL).

`O=C1CCCCCCCN1` showed a solubility of 4290 mM (≈ 606000 µg/mL).

Staying with this series, now noted: 24 °C.
Consider `Cc1ccc(S(N)(=O)=O)cc1N`, for which the solubility was 12.1 mM (≈ 2260 µg/mL).

`c1ccc(CCNCc2ccccc2)cc1`: the solubility was 1.89 mM (≈ 400 µg/mL).

Staying with this series, now noted: 25 °C.
Consider `O=Cc1ccc(O)c(C(=O)O)c1`, for which the solubility was found to be 2.32 mM (≈ 385 µg/mL).

In turn, `COC(=O)OC(C)C(=O)OC` (stereo not given) showed a solubility of 251 mM (≈ 40700 µg/mL).

`CSc1ncccn1` had a solubility of 396 mM (≈ 50000 µg/mL).

`O=C(O)c1ccc([N+](=O)[O-])c(C(=O)O)c1`: the solubility amounted to 45.8 mM (≈ 9670 µg/mL).

Regarding `NC(=O)OC(CCl)CCl`, the solubility stood at 43.6 mM (≈ 7500 µg/mL).

In turn, `O=C(O)CCC(=O)c1ccc2ccccc2c1` had a solubility of 0.14 mM (≈ 32 µg/mL).

`O=C(NC(=O)c1cccnc1)Nc1ccccc1` registered a solubility of 0.414 mM (≈ 100 µg/mL).

The compound `O=C(O)CCCCCCNS(=O)(=O)c1ccccc1` yielded a solubility of 8.97 mM (≈ 2560 µg/mL).

Turning to `CCC(C)(C)C1CCC(=NO)C(=NO)C1` (stereo not given), the solubility was determined as 0.108 mM (≈ 23 µg/mL).

Regarding `ON=C1C=CC(=NO)c2ncccc21`, the solubility worked out at 0.159 mM (≈ 30 µg/mL).

In turn, `CCCCCCCCCCCCCCCCNC(=O)C(C)O` (stereo not given) registered a solubility of 0.223 mM (≈ 70 µg/mL).

For `Cn1cnc2c1c(=O)n(CC(=O)O)c(=O)n2C`, the solubility turned out to be 42 mM (≈ 10000 µg/mL).

As to `CCCCP(=O)(CCCC)OCC`, the solubility amounted to 63 mM (≈ 13000 µg/mL).

Compound `O=C(O)c1ccc2ncccc2c1` registered a solubility of 900 mM (≈ 156000 µg/mL).

`Cc1ccccc1OCC(=O)O` showed a solubility of 3.61 mM (≈ 600 µg/mL).

Take `O=C(CCl)NC(=O)CCl`: the solubility came out at 5.88 mM (≈ 1000 µg/mL).

Turning to `O=P(Oc1ccccc1)(Oc1ccccc1)N1CCOCC1`, the solubility came to 7.2 mM (≈ 2300 µg/mL).

`CCOCCC(=O)OC` had a solubility of 847 mM (≈ 112000 µg/mL).

With `CCCCCCCCCCNC(=O)c1cccnc1`, the solubility was determined as 0.838 mM (≈ 220 µg/mL).

In turn, `Oc1cnn(-c2ccccc2)c1` gave a solubility of 10.9 mM (≈ 1750 µg/mL).

Regarding `CCCCCCCCCOC(=O)c1cccnc1`, the solubility amounted to 0.802 mM (≈ 200 µg/mL).

`N=C(NO)C(=N)NO`: the solubility worked out at 167 mM (≈ 19700 µg/mL).

Consider `c1ccc(-c2cccnc2)nc1`, for which the solubility was 256 mM (≈ 40000 µg/mL).

In the case of `Cc1ccc(S(=O)(=O)Oc2ccccc2C)cc1`, the solubility is 0.114 mM (≈ 30 µg/mL).

Compound `NP(N)(=O)c1ccccc1` had a solubility of 71.1 mM (≈ 11100 µg/mL).

The compound `C[Si](C)(O)O[Si](C)(C)O` came in with a solubility of 661 mM (≈ 110000 µg/mL).

`O=[N+]([O-])c1ccc(O)c([N+](=O)[O-])c1-c1ccccc1` had a solubility of 0.192 mM (≈ 50 µg/mL).

`CCN[C@@H](C)C(=O)O` (racemic) came in with a solubility of 4490 mM (≈ 526000 µg/mL).

As for `O=C(NC1CCCCC1)c1cccnc1`, the solubility is 4.8 mM (≈ 980 µg/mL).

`O=C(O)c1cc(N=Nc2ccccc2)ccc1O` returned a solubility of 0.879 mM (≈ 213 µg/mL).

`Cc1ccccc1N(C)C(N)=O` registered a solubility of 395 mM (≈ 64900 µg/mL).

On to `CC(=O)N[C@@H](CC(C)C)C(=O)O`, for which the solubility came to 46.8 mM (≈ 8100 µg/mL).

For `CCCCCOC(=O)CCOCC`, the solubility amounted to 6.37 mM (≈ 1200 µg/mL).

`Cn1c(=O)c2[nH]c(Cl)nc2n(C)c1=O` yielded a solubility of 31.1 mM (≈ 6670 µg/mL).

Consider `CO[C@H](C)[C@H](N)C(=O)O` (racemic), for which the solubility is 3100 mM (≈ 413000 µg/mL).

Regarding `O=C1OCc2ccc(Cl)cc21`, the solubility was found to be 3.3 mM (≈ 556 µg/mL).

For `CCOc1ccc(C(=O)O)c2ccccc12`, the solubility came out at 0.0772 mM (≈ 16.7 µg/mL).

`CCc1c[nH]c(=O)nc1N` showed a solubility of 95.6 mM (≈ 13300 µg/mL).

Consider `C1CCC2NCCCC2C1` (stereo not given), for which the solubility worked out at 82.6 mM (≈ 11500 µg/mL).

Turning to `CCCCC(CC)COC(=O)NS(N)(=O)=O` (stereo not given), the solubility worked out at 3.96 mM (≈ 1000 µg/mL).

Turning to `Nc1cc([N+](=O)[O-])ccc1Br`, the solubility turned out to be 0.277 mM (≈ 60 µg/mL).

The compound `CCSC(C(=O)O)c1ccccc1` (stereo not given) returned a solubility of 27 mM (≈ 5300 µg/mL).

`ON=C1CCCCC1` returned a solubility of 159 mM (≈ 18000 µg/mL).

On to `Nc1cc(S(=O)(=O)O)ccc1C(=O)O`, for which the solubility is 48.3 mM (≈ 10500 µg/mL).

Staying with this series, now noted: 26 °C.
The compound `O=C(S)CCCCCCCCC(=O)S` displayed a solubility of 0.853 mM (≈ 200 µg/mL).

Take `CC(C=NO)=NO`: the solubility amounted to 451 mM (≈ 46000 µg/mL).

As to `CSC1=CC(=O)c2ccccc2C1=O`, the solubility came out at 0.0343 mM (≈ 7 µg/mL).

The series is the same for the next values; noted with them: 27 °C.
Turning to `O=C(O)CCC(=O)OC[C@@H](NC(=O)C(Cl)Cl)[C@H](O)c1ccc([N+](=O)[O-])cc1`, the solubility was 8.27 mM (≈ 3500 µg/mL).

Compound `Cc1c2c(cc3c1ccc1ccccc13)CCCC2` returned a solubility of 0.000179 mM (≈ 0.044 µg/mL).

The same series, now with this note: 29 °C.
Consider `Cc1cnc(NS(=O)(=O)c2ccc(N)cc2)nc1C`, for which the solubility came to 0.719 mM (≈ 200 µg/mL).

The same series, now with this note: 30 °C.
For `C[C@H](Nc1ccccc1Cl)C(=O)O` (racemic), the solubility is 4.71 mM (≈ 940 µg/mL).

In the case of `CCCCCCOC(=O)c1ccc(O)cc1`, the solubility was determined as 0.112 mM (≈ 25 µg/mL).

Regarding `CCCCOC(=O)c1ccc(O)c(I)c1`, the solubility turned out to be 0.125 mM (≈ 40 µg/mL).

In the case of `CCc1ccccc1NC(C)=O`, the solubility is 25.7 mM (≈ 4190 µg/mL).

For `CCCCCCCCOC(=O)c1ccc(O)cc1`, the solubility is 0.0599 mM (≈ 15 µg/mL).

Turning to `COC(C)C(C)Cl` (stereo not given), the solubility was determined as 10 mM (≈ 1230 µg/mL).
